# According to US10624895B2, “Methods of sensitizing a patient with glioma to a therapeutic agent by administering small hairpin RNA targeting PDZ-RHOGEF” (THE TRANSLATIONAL GENOMICS RESEARCH INSTITUTE, priority 2016, dated 2020):
# Assays:
# cleaved PARP = assay: Immunoblot for cleaved PARP (TMZ-induced apoptosis); assay type: cell-based, human; settings: T98G cells, PPF (5 μM) in combination with TMZ (250 μM), compared to TMZ alone
# Protocol: FIGS. 26A, 26B, and 26C depict that PPF sensitizes GBM cells to TMZ and radiotherapy. FIG. 26A—A clonogenic assay was used to assess T98G and GBM43 cells survival after TMZ and radiation treatment. Cells were pre-treated with 5 μM PPF for 24 hours, and then either treated with 250 μM TMZ for 24 hours or exposed to 2 Gy radiation. Graph depicts the surviving fraction in the treated cells compared to vehicle (VC) treated or non-treated (NT) cells, **p<0.01. FIG. 26B—T98G glioma cells were treated with vehicle, PPF (5 μM) TMZ (250 μM) and PPF in combination with TMZ. TMZ-induced apoptosis was assayed by immunoblot analysis of cell lysates with an antibody to cleaved PARP. Immunoblotting for α-Tubulin was included as a loading control. FIG. 26C—T98G, GBM10, and GBM43 cells were treated with PPF ([…], and then immunoblotted to assess the activation of AKT and NF-κB. Immunoblotting for β-Actin is included as a loading control.
# Referring now to FIGS. 26A, 26B, and 26C: Knockdown of TROY expression with shRNA decreases TMZ resistance in GBM cells in vitro (See Reference 42). […] Following combination therapy, cells were trypsinized, counted, and plated in a 6-well culture dish at densities of 100, 250, and 500 cells per well in triplicate. Cells were incubated for 12 days then fixed, stained with 0.5% crystal violet solution, and counted manually by blinded observers. […]
# Rac1 = Rac1 activation assay after PPF; assay type: cell-based, human; settings: T98G cells, 5 μM PPF 1 hour, then 10% FBS
# Protocol: FIGS. 27A and 27B depict that PPF suppresses GBM cell invasion and Rac1 activation. FIG. 27A—T98G, GBM10, and GBM43 glioma cells were treated with 5 μM PPF and invasion was assayed over 24 hours utilizing a Matrigel® invasion assay, *p<0.05. FIG. 27B—T98G glioma cells were serum starved, pre-incubated with 5 μM PPF or vehicle for 1 hour, and then stimulated with 10% FBS for 2-10 mins. Cell lysates were harvested and equal concentrations of protein were assessed for Rac1 activation.
# Referring now to FIGS. 27A and 27B: The inventors next examined whether PPF inhibited TROY dependent glioma cell invasion. […] Briefly, 5.0×10^5 cells glioma cells were seeded in 100-mm diameter culture dishes and incubated overnight at 37° C. Subsequently, cells were serum starved for 16 hours at 37° C. Cells were then harvested, re-suspended in growth factor reduced Matrigel® (Becton Dickinson) (1.0×10^5 cells/50 μL), added in triplicates to collagen-coated transwell chambers, and allowed to invade through Matrigel® in presence of 10% FBS and/or 5 μM PPF. After incubation for 24 hours at 37° C. non-invaded cells were scrapped off the upper side of the membrane and cells invaded to the other side of the membrane were fixed with 4% paraformaldehyde (PFA) (Affymetrix) and stained with DAPI (Invitrogen). Nuclei of invaded cells were counted in five high power fields (HPF) with a 20× objective.
# [1] = tested on: T98G, GBM10, and GBM43 cells; assay: Lamellipodia formation and membrane ruffling (F-actin staining); assay type: cell-based, human; settings: 5 μM PPF 1 hour prior to 10% FBS for 5 min
# Protocol: FIGS. 28A and 28B depict that PPF suppresses GBM cell membrane ruffling. FIG. 28A—GBM43 cells were preincubated with 5 μM PPF or vehicle for 1 hour prior to 10% FBS stimulation for 5 min. After FBS stimulation, cells were fixed, permeabilized, and stained for F-actin. For each experimental condition, at least 12 images were taken randomly. Arrowhead indicates membrane ruffles. FIG. 28B—Graph depicts the average lamellipodia in T98G, GBM10, and GBM43 cells in the presence or absence of 10% FBS with or without 5 μM PPF as indicated. Lamellipodia were traced using Image J software.
# Referring now to FIGS. 28A and 28B: The inventors investigated lamellipodia formation and membrane ruffling. Briefly, glioma cells were plated onto 10-well glass slides pre-coated with 10 μg/ml laminin at the density of 3000 cells/well for 24 hours at 37° C. Subsequently, cells were serum starved for 16 hours. The cells were pre-incubated with 5 μM PPF or vehicle for 1 hour prior to 10% FBS stimulation for 5 min. After FBS stimulation, cells were fixed in 4% PFA, permeabilized with 0.1% Triton X-100, and incubated with Alexa Fluor® 555 Phalloidin (Invitrogen) to stain for F-actin. Slides were mounted with ProLong® reagent with DAPI and imaged using a Zeiss LSM 510 microscope. For each experimental condition, at least 12 images were randomly taken. Lamellipodia were traced using ImageJ software.
# microglia = settings: by decreasing TROY expression; cited from earlier work
compound,measurement,setting,value
"CCCn1cnc2c1c(=O)n(CCCCC(C)=O)c(=O)n2C [PPF, 3-methyl-1-(5-oxohexyl)-7-propyl-3,7-dihydro-1H-purine-2,6-dione]",cleaved PARP,cleaved PARP,increase in cleaved PARP
same,Rac1 activation,Rac1,inhibited Rac1 activation
same,lamellipodia formation and membrane ruffling,[1],significantly decreased
same,migration of microglia,microglia,inhibit the migration of microglia
